These results are taken from PMC5620575 (Pharmaceutics, 2017).

Data set [1] in a line: pharmacokinetics after single IV administration. It is filed as in vivo. Particulars: rabbit, 5 mg/kg. From the text:
IV administration of the compounds under investigation, and collection of blood samples were through a catheter inserted in the marginal ear vein of the rabbit (I-Cath, CharterMed Inc., Winston-Salem, NC, USA). After IV drug administration, blood was withdrawn to fill the cannula and then reinjected three times before obtaining any blood samples to prevent contamination. Furthermore, the cannula was flushed with heparinized saline to prevent blockage of the cannula and prevent sample to sample contamination.
Urine samples were collected utilizing Foly Catheter (size French 8). The catheter was inserted into the rabbit bladder using a lubricant. When urine is collected over a specific time interval, the bladder was irrigated with 3 × 15 mL normal saline at 3 min, 6 min, and 10 min before the end of the urine collection interval [15, 16]. Irrigation of the bladder is necessary to obtain the majority of the drug eliminated in urine during the collection interval.
Three groups of rabbits (n = 4, each) received 5 mg/kg dose of each compound via the IV catheter. This dose was selected based on the results of a preliminary experiment to achieve measurable plasma concentrations for 8 h using our analytical methods, to ensure good characterization of the plasma concentration-time profile. Accurately weighed Lzd and PH027 powder were dissolved first in 600 μL of ethanol using an ultrasound water bath. The resulting solution was then diluted with normal saline to produce the solutions used for IV administration, which consist of the dose of the compound dissolved in 3 mL of 20% ethanol in normal saline. PH051 required the use of slightly larger volume of ethanol to achieve complete dissolution. So, 900 μL of ethanol were used, and the resulting solution used for IV administration consisted of PH051 dose dissolved in 3 mL of 30% ethanol in normal saline. The difference in the volume of ethanol administered, 300 μL, which was necessary to ensure complete dissolution of PH051, should not have a significant effect on the pharmacokinetic behavior of PH051. The solutions were administered slowly over a period of […] administration, serial blood and urine samples were obtained over a period of 8 h. Plasma was obtained from blood by centrifugation, and samples were kept at −80 °C until analysis. The volumes of urine samples were determined and recorded, and aliquots were kept at −80 °C until analysis.
(§1) The pharmacokinetic parameters for each of the three compounds including half-life (t1/2), volume of distribution (Vd), elimination rate constant (k), area under the plasma concentration-time curve (AUC), total body clearance (CLT), renal clearance (CLR), and oral bioavailability (F) were determined using the general pharmacokinetic parameter calculation procedures using PKPD tools for Microsoft Excel. The obtained pharmacokinetic parameters for each compound were compared using Statistical Package of Social Sciences (SPSS) to determine the difference in the pharmacokinetic behavior for the three compounds.

A short description of data set [2]: pharmacokinetics after single oral administration as suspension. Conditions: New Zealand White, plasma, rabbit, 20 mg/kg, n = 4. It is filed as in vivo. As to the method:
The pediatric feeding tube was pushed until it reached the stomach.
Three groups of rabbits (n = 4, each) received 20 mg/kg oral dose of each compound. […] Accurately weighted amounts of each compound were dissolved/suspended in 20 mL of warm normal saline using an ultrasound water bath. […] The solutions/suspensions of the three compounds were administered orally to the rabbits using a pediatric feeding tubes. After oral administration of each compound, serial blood samples were obtained through the IV catheter, over a period of 10 h after administration. Plasma was obtained from blood by centrifugation, and samples were kept at −80 °C until analysis.
as §1

Data set [3] can be described thus: pharmacokinetics after single oral administration as microemulsion. The class given is in vivo. Conditions: New Zealand White, plasma, rabbit, 20 mg/kg, n = 3. As to the method: Three groups of rabbits (n = 3, each) received 20 mg/kg oral dose of each compound in the form of microemulsion through a pediatric feeding tube. After administration, serial blood samples were obtained through the IV catheter, over a period of 10 h. Plasma was obtained from blood by centrifugation, and samples were kept at −80 °C until analysis.
as §1

A short description of data set [4]: tissue to plasma distribution. It is filed as in vivo. Conditions: New Zealand White, rabbit, in vivo, 2 x 10 mg/kg IV, 2 h after second dose, n = 3, read-out: Tissue to Plasma Concentration Ratio, Kidney. The procedure: Three groups of White New Zealand rabbits (n = 3, each) weighing 3.0–3.5 kg were used. Each group received 10 mg/kg of one compounds administered intravenously over a period of 3–5 min, followed one hour later by a second IV dose of 10 mg/kg. Two h later, the rabbits were euthanized with an IV dose of pentobarbital. Plasma and tissue samples, including kidney, liver, lungs, spleen, heart, muscles, and vetrus fluid were collected immediately, and stored at −80 °C until analysis.
Plasma ultra-filtrate samples were analyzed using the same procedures for the plasma. Tissue homogenates were prepared by adding 1 gm of the tissues samples to 4 g of phosphate buffer, pH 7.4 (1:4, w/w), then homogenization using Tissue-Tearor, Bio-Spec Products Inc. (Bartlesville, OK, USA). Aliquots of 200 μL of tissue homogenate samples were analyzed using the procedures for the plasma and the concentrations were determined using plasma calibrators as described and validated previously for Lzd and PH027 [18].
The tissue to plasma concentration ratios for the three compounds were calculated from the ratio of the tissue homogenate concentrations corrected for the dilution during the homoginization process and the plasma concentrations. Generally, the three compounds have very good distribution to all tissues. The tissue to plasma distribution ratios for the novel compounds were more than one in kidney, lung, liver, heart, muscles and spleen, and the ratios were more than those for Lzd in all investigated tissues. Table 3, summerizes the tissue to plasma distribution ratios for the three compounds in different tissues.

The test system of data set [5] is Staphylococcus aureus and Enterococci spp. Further details: method as in PMID 12467705, PMID 15911326, PMID 17140706, PMID 19376613, PMID 23811087. Particulars: clinical isolates; cited from earlier work.
The test system of a further data set is Escherichia coli. Further details: method as in PMID 12467705, PMID 15911326, PMID 17140706, PMID 19376613, PMID 23811087. Particulars: cited from earlier work.
The subject of a further data set is Heamophilus influenzae. Further details: method as in PMID 12467705, PMID 15911326, PMID 17140706, PMID 19376613, PMID 23811087. Particulars: unit printed only for the neighbouring MICs of the sentence; cited from earlier work.
The test system of another data set is Streptococcus pneumoniae. More on the design: method as in PMID 12467705, PMID 15911326, PMID 17140706, PMID 19376613, PMID 23811087. Particulars: cited from earlier work.
For a further data set, the system named is Moraxella catarrhalis. Further details: method as in PMID 12467705, PMID 15911326, PMID 17140706, PMID 19376613, PMID 23811087. Particulars: cited from earlier work.
In the next data set the test system is S. aureus Giorgio. More on the design: method as in ref unpublished data from Jin-Hwan Kwak at Handong Global University. Conditions: oral suspension 1 and 4 h after infection, survival recorded for 72 h; ref unpublished data from Jin-Hwan Kwak at Handong Global University; cited from earlier work.
Details of data set [6]: method as in ref 25 = [25]; 25. ZYVOXAM ® Product Monograph Pfizer Canada Inc. Kirkland, QC, Canada 2015. Particulars: humans; cited from earlier work.
On the set-up of data set [7]: method as in unpublished data from our laboratory. Conditions: rabbit urine after IV administration; ref unpublished data from our laboratory; cited from earlier work.
For data set [8] the following is noted: weak base; reported, no reference given; cited from earlier work.
For data set [9] the following is noted: humans; cited from earlier work.
Setting [10] is: White New Zealand, plasma, n = 4.

In brackets after ≈: the same amount, converted by molar mass.

As for `CC(=O)NC[C@H]1CN(c2ccc(N3CCOCC3)c(F)c2)C(=O)O1` [Linezolid, reference compound], the exposure (AUC) was 4040 ± 1280 ng·h/mL in [1] (setting [10]), 6250 ± 3620 ng·h/mL in data set [2] and 8350 ± 3340 ng·h/mL in data set [3]. In addition, the half-life in [1] (setting [10]) stood at 52.4 ± 6.3 min. Besides, in data set [1] (White New Zealand, plasma, n = 4, read-out: Elimination rate constant (converted)), the k el was 0.00022 s⁻¹. Besides, the CL renal in data set [1] (White New Zealand, urine and plasma, from renal excretion rate and plasma drug concentration, read-out: Renal clearance (converted)) is 1.38 mL/min/kg. This compound also returned a CLT in data set [1] (n = 4) of 20.7 ± 7.17 mL/min/kg. Also, the “Fraction excreted unchanged in urine” value in [1] (ratio of renal clearance to total body clearance) turned out to be 5.70%. The results for the maximum concentration (Cmax) in data set [2] and in data set [3] were 3910 ± 1010 ng/mL and 3410 ± 1800 ng/mL, respectively. Also, the time to peak (Tmax) was 60 min in [2] and 45 min in data set [3]. The Kp at 2 h in data set [4] turned out to be 2.05 ± 0.067. The MIC is 0.5 to 1.0 µg/mL in data set [5]; greater than 64 µg/mL in the data set on Escherichia coli; 8 µg/mL (≈ 23.7 µM) with Heamophilus influenzae; 0.5 µg/mL (≈ 1.48 µM) in the data set with Streptococcus pneumoniae; 8.0 µg/mL (≈ 23.7 µM) in the data set with Moraxella catarrhalis. Moreover, in the data set on S. aureus Giorgio, the “in vivo activity against systemic mice infection” value is recorded as “better than the in vivo activity of the novel triazolyl-oxazolidinone derivatives”. The “dose excretion in urine” value in [6] is recorded as 30%. The main metabolic route entry in data set [7] is “metabolized mainly through oxidation”. In data set [8], the pKa is listed as 1.4. The plasma protein binding in [9] is 30%.

One may read the AUC as the area under the concentration-time curve, a measure of exposure. Lower therefore signals less exposure. Usually half-life stands for the time needed for the level to fall by half in the phase considered. As usually defined, the Cmax is the maximum level reached in the sampled fluid or tissue. In general, Tmax refers to the time from dosing to the highest level. The pKa is the negative logarithm of the acid dissociation constant.
